{
  "source": "patent US20230129262A1",
  "about": "“METHODS AND PHARMACEUTICAL COMPOSITIONS OF THROMBOXANE A2 RECEPTOR ANTAGONIST FOR THE TREATMENT OF COVID-19” (priority 2020, published 2023)",
  "origin": "cited, not measured here",
  "key": {"TP receptor [1]": {"system": "TP receptor", "settings": "TP receptor blockade, several cited studies"}, "TP receptors": {"target": "T1, TP receptors (Rattus norvegicus, UniProt P34978)", "T1 sequence (P34978 1-341)": "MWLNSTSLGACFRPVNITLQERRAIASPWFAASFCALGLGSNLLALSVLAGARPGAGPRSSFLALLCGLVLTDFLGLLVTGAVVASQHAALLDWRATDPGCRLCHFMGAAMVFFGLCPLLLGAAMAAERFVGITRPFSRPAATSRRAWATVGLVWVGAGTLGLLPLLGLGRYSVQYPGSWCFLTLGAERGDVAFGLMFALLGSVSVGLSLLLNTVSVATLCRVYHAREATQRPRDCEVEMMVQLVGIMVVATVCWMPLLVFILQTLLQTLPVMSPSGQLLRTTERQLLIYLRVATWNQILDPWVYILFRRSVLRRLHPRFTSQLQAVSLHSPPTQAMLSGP", "settings": "infusion of the TxA2 mimetic, preclinical studies (Bertolino, Valentin et al. 1995)"}, "platelet activation": {"system": "platelet activation", "settings": "Tarantino, Amadio et al. 2016"}, "TP receptor [2]": {"target": "T2, TP receptor (Mus musculus, UniProt P30987)", "T2 sequence (P30987 1-341)": "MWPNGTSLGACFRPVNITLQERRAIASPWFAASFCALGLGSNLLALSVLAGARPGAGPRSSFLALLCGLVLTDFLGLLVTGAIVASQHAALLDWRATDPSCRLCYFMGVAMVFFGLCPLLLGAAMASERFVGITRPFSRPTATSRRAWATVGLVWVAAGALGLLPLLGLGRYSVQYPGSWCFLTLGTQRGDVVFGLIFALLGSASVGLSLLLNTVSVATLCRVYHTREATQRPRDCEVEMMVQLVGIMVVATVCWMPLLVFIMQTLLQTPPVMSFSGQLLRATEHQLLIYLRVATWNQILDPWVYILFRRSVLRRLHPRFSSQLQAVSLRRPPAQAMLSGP", "settings": "pressure-overload model of pulmonary arterial hypertension (West, Voss et al. 2016)"}, "TP receptor [3]": {"target": "T2, TP receptor", "settings": "bleomycin model of pulmonary fibrosis (Suzuki, Kropski et al. 2021)"}, "TP receptor [4]": {"target": "T2, TP receptor", "settings": "model of Duchenne muscular dystrophy (West, Galindo et al. 2019)"}, "TP receptor [5]": {"target": "T3, TP receptor (Homo sapiens, UniProt P21731)", "T3 sequence (P21731 1-343)": "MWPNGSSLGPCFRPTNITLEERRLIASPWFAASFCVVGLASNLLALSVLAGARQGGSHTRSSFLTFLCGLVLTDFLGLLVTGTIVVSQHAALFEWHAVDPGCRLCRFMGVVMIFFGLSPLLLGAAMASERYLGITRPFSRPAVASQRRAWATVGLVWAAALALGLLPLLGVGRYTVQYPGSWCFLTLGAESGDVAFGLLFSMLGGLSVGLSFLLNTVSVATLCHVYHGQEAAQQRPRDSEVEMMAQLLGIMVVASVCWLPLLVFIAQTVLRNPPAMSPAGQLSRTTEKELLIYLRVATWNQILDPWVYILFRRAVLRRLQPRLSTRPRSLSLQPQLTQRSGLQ", "settings": "patients with acute lung injury; by selectively relaxing pulmonary veins and decreasing post-capillary resistance (Schuster, Kozlowski et al. 2001)"}, "TP receptor [6]": {"target": "T2, TP receptor", "settings": "chronic hypoxia in mice, potentiated in COX-2 knock-out mice (Cathcart, Tamosiuniene et al. 2008)"}, "TP receptor [7]": {"system": "TP receptor"}},
  "note": "Where two headings read alike, the source gives them in different places.",
  "data": [
    {"smiles": "C[C@H](c1ccccc1)[C@@H](O)/C=C/[C@@H]1[C@H](C/C=C\\CCCC(=O)O)[C@H]2CC[C@@H]1O2", "note": "[SQ28668]", "values": [
      {"measurement": "lung injury-associated pulmonary hypertension, hypoxemia, and pulmonary edema", "setting": "TP receptor [1]", "result": "inhibited"}
    ]},
    {"smiles": "CCCCCCC(=O)NCC(=O)NC[C@H]1[C@@H](C/C=C\\CCCC(=O)O)[C@@H]2CC[C@H]1O2", "note": "[SQ30741]", "values": [
      {"measurement": "lung injury-associated pulmonary hypertension, hypoxemia, and pulmonary edema", "setting": "TP receptor [1]", "result": "inhibited"}
    ]},
    {"smiles": "CCCCC[C@H](O)/C=C/[C@@H]1[C@@H](C/C=C\\CCCC(=O)O)[C@H]2CO[C@@H]1C2", "note": "[U-16,619, 9,11-dideoxy-9α, 11α-methanoepoxy prostaglandin F2α]", "values": [
      {"measurement": "plasma fluid and protein accumulation in the lung", "setting": "TP receptors", "result": "strongly increased"}
    ]},
    {"smiles": "CC(=O)Oc1ccccc1C(=O)O", "note": "[aspirin, acetylsalicylic acid]", "values": [
      {"measurement": "mortality", "setting": "high-dose aspirin (1,000 mg/day), compared to propensity score matched COVID-19 controls (Liu, Huang et al. 2021)", "result": "reduced"},
      {"measurement": "risk of mechanical ventilation, ICU admission, and in-hospital mortality", "setting": "low-dose aspirin use, hospitalized COVID-19 patients (Chow, Khanna et al. 2021)", "result": "decreased risk"},
      {"measurement": "platelet activation in venous thrombosis", "setting": "platelet activation", "result": "prevents"}
    ]},
    {"smiles": "CCCCCNC(=O)c1coc([C@H]2[C@@H](Cc3ccccc3CCC(=O)O)[C@@H]3CC[C@H]2O3)n1", "note": "[ifetroban, 3-[2-[[(1S,2R,3S,4R)-3-[4-(pentylcarbamoyl)-1,3-oxazol-2-yl]-7-oxabicyclo[2.2.1]heptan-2-yl]methyl]phenyl]propanoic acid]", "values": [
      {"measurement": "cardiac function", "setting": "TP receptor [2]", "result": "improves"},
      {"measurement": "right ventricular fibrosis", "setting": "TP receptor [2]", "result": "dramatically decreases"},
      {"measurement": "development of fibrosis", "setting": "TP receptor [3]", "result": "blocked"},
      {"measurement": "cardiac function", "setting": "TP receptor [4]", "result": "improves"},
      {"measurement": "right ventricular fibrosis", "setting": "TP receptor [4]", "result": "dramatically decreases"},
      {"measurement": "lung injury-associated pulmonary hypertension, hypoxemia, and pulmonary edema", "setting": "TP receptor [1]", "result": "inhibited"},
      {"measurement": "pulmonary capillary pressure", "setting": "TP receptor [5]", "result": "reduced"},
      {"measurement": "pulmonary hypertension and pulmonary intravascular thrombosis", "setting": "TP receptor [6]", "result": "prevented"},
      {"measurement": "arterial and tissue oxygenation", "setting": "TP receptor [7]; compared with septic controls (Quinn and Slotman 1999)", "result": "significantly increased"},
      {"measurement": "systemic and pulmonary vasoconstriction", "setting": "TP receptor [7]; sepsis animal model (Quinn and Slotman 1999)", "result": "ameliorated"}
    ]}
  ]
}
